Where “and” joins values, the source holds several entries; their conditions need not be identical. Equal values may be shown once. Entries after “also recorded” stand apart in the source; their conditions may differ.
Legend:
[1] = test system: IL-2; human mononuclear cells; assay: IL-2 activity of human mononuclear cell supernatants on CTLD cells (Example 8); format: cell-based; conditions: control CTLD cells 3,500
Procedure: Human mononuclear cells were obtained as described above and cultured for 72 hours at a concentration of 10^6 cells/ml enriched RPMI, in the presence of varying concentrations of the compound of Example 1. Culture supernatants were collected, centrifuged and tested for IL-2 activity by using 50% of the volume of the supernatant assaying their ability to support the proliferation of the IL-2 dependent cell line CTLD.

mice = assay: Preliminary toxicity studies in mice; format: in vivo; conditions: 6 week old mice
Procedure: The compounds may be used as anti-bacterial or anti-viral agents in plants or in animals. Virus infections such as West Nile virus infections in mice are susceptible to the compound of the Example 1 at a dose of 10 μg/day/mouse. Plant bacterial infections such as crown gall caused by Agrobacterium tumefaciens may be treated or prevented by the application of a 0.1% solution of compounds of the invention.

West Nile virus (WNV) [2] = assay: West Nile virus infection in mice (Example 22); format: in vivo, ICR mice
Procedure: The effect of the compound of Example 1 on an infection with West Nile virus (WNV) was determined. WNV is a toga virus of the flavivirus group, a positive single stranded RNA virus, which when injected IP to mice usually kills them within 5-8 days as a result of extensive damage to the central nervous system. For this study ICR mice (3 wks of age) were injected IP with the virus at the concentration of 10^3 or 10^4 LD 50 units/mouse. Injections of 10 μg/0.2 ml PBS/mouse of the compound of Ex. 1 were given on day -1 (one day prior to injection of virus) and 6 days after injection of virus.
In a second experiment, mice were injected with 10^3 IPLD50 virus and received injections of the compound of Example 1 (1 μg/0.2 ml PBS/mouse) on days -1, 1, 2 and 4.

IL-2 = assay: Oral administration: induction of lymphokines, IL-2 content of spleen cell supernatants (Example 13); format: in vivo, Balb-C mice; conditions: for IL-2, percent increase as compared to control: 4 days
Procedure: The water solution was prepared by dissolving the compounds in PBS at a concentration of 50 μg/ml PBS and diluting the resulting solution to the desired concentration. The compounds were administered over a 4 day period. The exact amount of liquid intake was recorded daily. […] The cells were incubated at a concentration of 10^7 cells/ml in enriched RPMI containing 2 μg/ml of con-A for 24 hours at 37° C. The supernatants were collected and tested for IL-2 content.
After 24 hours the mice were sacrificed and the spleens were processed as described above.

West Nile virus (WNV) [3] = assay: WNV yield in mouse macrophage cultures (Example 23); format: cell-based, WNV in ICR mouse macrophages; conditions: for Virus Yield (PFU/ml): virus alone 2 × 10^4 /ml
Procedure: Varying amounts of the compound of Example 1 (5 μg, 1 μg, 0.1 μg) were incubated with a monolayer of mouse macrophages for 24 h. […] All cultures were then infected with 10^4 PFU/plate. After 72 h incubation the supernatants were collected and the virus was titrated against Vera cells.

CSF; mouse spleen cells = assay: In vitro induction of colony stimulating factor (CSF) from mouse spleen cells (Example 7); format: cell-based, Balb-c mice; conditions: baseline 70-80 colonies/dish
Procedure: (§1) This example describes the in vitro making of IL-2 and CSF from mouse spleen cells using the compound of Example 1 as the extrinsic stimulating agent.
(§2) Spleens were removed from 15, male Balb-c mice 6 to 8 weeks of age. The spleen cells were pushed through stainless steel 60 mesh (U.S. standard) nets resting in […] Petri dishes containing PBS in order to separate the cells. The cells were then collected into centrifuge tubes and spun at 1000 rpm for 10 minutes. The supernatant was discarded and cells were treated with 5 ml of hypotonic buffer (0.15MNH4 Cl; 0.01M KHCO3 dissolved in double distilled water, pH 7.2) for exactly two minutes. Thereafter, PBS was added to the cells and the test tubes were centrifuged for 10 minutes at 1000 rpm. The cells were rinsed twice and counted in a heamocytometer using trypan blue to test for viability. The cells were brought to a concentration of 10^7 viable cells/ml. The cells were contacted with varying amounts of the compound of Example 1 in 1 ml of 40% DMSO 60% PBS.

[4] = test system: IL-2; human mononuclear cells; assay: IL-2 production by human mononuclear cells of normal donors and systemic lupus patients, with or without PHA (Example 20); format: cell-based
Procedure: Using the procedure of Example 4, human mononuclear cells were tested for their ability to produce IL-2 after induction with PHA or in unstimulated cells from normal donors and from patients suffering from systemic lupus erthyrematous. The IL-2 content was tested according to the procedure of Example 3 using the CTLD IL-2 dependent cell line.
*Dilution of 1 part of 0.2 ml of PBS containing 5 μg of compound of Ex
**CPM × 10^-3 of ^3 H Thymidine of 5 × 10^4 CTLD
cells in presence of 1:2 dilution of the supernatants as in Ex. 3. PG,4

IL-2; mouse spleen cells = assay: In vitro induction of IL-2 from mouse spleen cells (Example 7); format: cell-based, Balb-c mice; conditions: baseline 4,000-5,000 CPM
Procedure: as §1, §2

fibrosarcoma cells = assay: Survival of mice with methylcholanthrene-induced fibrosarcoma cells (Example 6); format: in vivo, Balb-c mice; conditions: until just after the increased dosage regimen (day 39)
Procedure: Balb-c mice, age 7 weeks were injected with methylcholanthrene to induce the formation of fibrosarcoma cells according to the procedure of Example 5. The test animals were divided into two groups.
(a) control (0.2 IP of 40% DMSO and 60% PBS)

IL-2; spleen cells = assay: In vitro IL-2 secretion of mouse spleen cells, CTLD assay (Example 17); format: cell-based, Balb/c mice; conditions: IL-2 activity, 24 h; for Spleen Cells (cpm): control 2,550
Procedure: The compounds listed below were tested in vitro at various concentrations that ranged from 10 μg/ml cells to 1×10^-6 μg/ml of cell mixtures. Cells were obtained from spleens of male Balb/c mice 6-8 weeks of age. Spleens were pushed through a stainless steel 60 mesh strainer to separate cells.

[5] = test system: IL-2 receptors; human mononuclear cells; assay: Detection of IL-2 receptor sites with fluoresceinated antibody (Example 21); format: cell-based; conditions: 1 μg/ml, 24 h; control 2%
Procedure: This example provides an assay to detect the presence of receptor sites for IL-2. […] The cells were washed twice with PBS and then incubated with a specific fluoresceinated antibody against IL-2 receptors as described in Uchiyama et al, J. Immunol.

[6] = test system: IL-2 receptors of human mononuclear cells; assay: Induction of IL-2 receptors of human mononuclear cells, proliferation by 3HT uptake (Example 18); format: cell-based
Procedure: Human MNC were brought to a concentration of 10^6 cells/ml. RPMI+10% FCS. Aliquots of 0.2 ml. were placed in duplicate wells of microdishes and plates were incubated at 37 C for 24 hrs. […] Plates were further incubated for 48 hrs. and labelled with 3H thymidine 24 hrs. before harvesting.
The proliferation was measured by ^3 HT uptake as described by Gillis et al, J. Immunol. […] The results are expressed in counts per minute.

human mononuclear cells = assay: Proliferation of human mononuclear cells (Example 19); format: cell-based; conditions: at any concentration that was tested
Procedure: Human mononuclear cells were obtained by layering heparinized blood over a Ficoll/Hypaque gradient. The mononuclear cells were resuspended in enriched RPMI, rinsed three times and brought to a concentrations of 5×10^5 cells/ml encriched RPMI. […] Aliquots of 0.2 ml of each sample were placed in wells of microplates (triplicates). Microplates were incubated for 72 hours at 37° C. after which they were labelled with H^3 methyl-thymidine 1 uCi/well for an additional 24 hours. Cells were then harvested with a cell harvester.

## Cl[TeH]1(Cl)(Cl)OCCO1 [Example 1]
[1]; 1 ng
  IL-2 activity, Counts per minute: 11,000 Counts per minute
[1]; 10 ng
  IL-2 activity, Counts per minute: 1,500 Counts per minute
[1]; 1 μg
  IL-2 activity, Counts per minute: 250 Counts per minute
[1]; 100 μg
  IL-2 activity, Counts per minute: 280 Counts per minute
mice
  LD50: 300 ug./25 g of body weight
West Nile virus (WNV) [2]; 10 μg/day/mouse
  West Nile virus infections in mice: susceptible
West Nile virus (WNV) [2]; 10^3 or 10^4 LD50 virus, 10 μg/mouse
  animals remained alive after 8 days: three out of five
West Nile virus (WNV) [2]; Table A, no virus (0), compound alone
  # Alive/Total Animals: 6/6
West Nile virus (WNV) [2]; second experiment, after day 8
  further survival of the remaining three mice: Two out of the remaining three survived an additional 8 days; also recorded: the third remained alive without any manifestations of clinical symptoms
West Nile virus (WNV) [2]; second experiment, day 8, 10^3 IPLD50 virus, 1 μg/mouse on days -1, 1, 2 and 4, virus alone 0/8
  # Alive/Total: 3 out of 5 and 3/5
West Nile virus (WNV) [2]; second experiment, day 8, compound alone, no virus
  # Alive/Total: 5/5
IL-2; 1 μg/ml drinking water
  IL-2, percent increase as compared to control: 50%
IL-2; given in dry form or when hydrolyzed in an aqueous diluent
  inducing lymphokine production: active for inducing lymphokine production
West Nile virus (WNV) [3]; 0.1 μg
  reduction in virus yield: ten
West Nile virus (WNV) [3]; 0.1 μg/plate
  Virus Yield (PFU/ml): 2 × 10^3 PFU/ml
West Nile virus (WNV) [3]; 1 μg/plate
  Virus Yield (PFU/ml): 5 × 10^2 PFU/ml
CSF; mouse spleen cells; 5 pg
  CSF (colonies/dish): 140 colonies/dish
CSF; mouse spleen cells; 50 pg
  CSF (colonies/dish): 260 colonies/dish
CSF; mouse spleen cells; 5 ng
  CSF (colonies/dish): 120 colonies/dish
CSF; mouse spleen cells; 50 ng
  CSF (colonies/dish): 75 colonies/dish
CSF; mouse spleen cells; 500 ng
  CSF (colonies/dish): 25 colonies/dish
CSF; mouse spleen cells; 5 μg
  CSF (colonies/dish): 5 colonies/dish
CSF; mouse spleen cells; 50 μg
  CSF (colonies/dish): 2 colonies/dish
[4]; SLE, PHA +, 5 μg 0.2 ml PBS
  IL-2 production, CPM × 10^-3 of 3H thymidine: 6.3 CPM × 10^-3 and 8.2 CPM × 10^-3 and 4.1 CPM × 10^-3
[4]; SLE, PHA +, 1:100 PBS
  IL-2 production, CPM × 10^-3 of 3H thymidine: 24.0 CPM × 10^-3
[4]; SLE, PHA -, 5 μg 0.2 ml PBS
  IL-2 production, CPM × 10^-3 of 3H thymidine: 2.0 CPM × 10^-3 and 2.4 CPM × 10^-3
[4]; normal, PHA -, 5 μg 0.2 ml PBS
  IL-2 production, CPM × 10^-3 of 3H thymidine: 2.3 CPM × 10^-3 and 2.1 CPM × 10^-3
IL-2; mouse spleen cells; 5 pg
  IL-2 (cpm): 12,000 cpm
IL-2; mouse spleen cells; 50 pg
  IL-2 (cpm): 38,000 cpm
IL-2; mouse spleen cells; 500 pg
  IL-2 (cpm): 30,000 cpm
IL-2; mouse spleen cells; 5 ng
  IL-2 (cpm): 15,000 cpm
IL-2; mouse spleen cells; 50 ng
  IL-2 (cpm): 6,000 cpm
IL-2; mouse spleen cells; 500 ng
  IL-2 (cpm): 5,000 cpm
IL-2; mouse spleen cells; 5 μg
  IL-2 (cpm): 5,000 cpm
IL-2; mouse spleen cells; 50 μg
  IL-2 (cpm): 5,000 cpm
Fibrosarcoma cells
  mortality results for group (b): 0%

## Cl[Te]1(Cl)OCCO1 [Example 2]
IL-2; spleen cells
  Spleen Cells (cpm): 18,000 cpm
IL-2; 1 μg/ml drinking water
  IL-2, percent increase as compared to control: 30%
IL-2; 25 μg/ml drinking water
  IL-2, percent increase as compared to control: 35%

## CC(=O)O[Te](OC(C)=O)(c1ccccc1)c1ccccc1 [Ph2 Te(OCOCH3)2]
IL-2; spleen cells
  Spleen Cells (cpm): 3,500 cpm

## O=C(O[Te](OC(=O)c1ccccc1)(c1ccccc1)c1ccccc1)c1ccccc1 [Ph2 Te(OCOPh)2]
IL-2; spleen cells
  Spleen Cells (cpm): 4,300 cpm

## Cl[Te](Cl)(c1ccccc1)c1ccccc1 [Ph2 TeCl2]
IL-2; spleen cells
  Spleen Cells (cpm): 2,300 cpm

## Cl[Te](Cl)(Cl)c1ccccc1 [PhTeCl3]
IL-2; spleen cells
  Spleen Cells (cpm): 18,000 cpm

## O=[Te]=O [TeO2, Tellurium dioxide]
IL-2; spleen cells
  Spleen Cells (cpm): 17,055 cpm
IL-2; spleen cells; control 2,550 cpm
  Spleen Cells, percent increase: 508%
[5]
  cells positive for IL-2 receptors: 5%
[6]; Test A, 1 μg/ml, control 2338
  proliferation (3HT uptake), counts per minute: 1563 counts per minute
[6]; Test A, 1 × 10^-2 μg/ml, control 2338
  proliferation (3HT uptake), counts per minute: 3108 counts per minute
[6]; Test A, 1 × 10^-3 μg/ml, control 2338
  proliferation (3HT uptake), counts per minute: 2867 counts per minute
[6]; Test A, 1 × 10^-4 μg/ml, control 2338
  proliferation (3HT uptake), counts per minute: 5540 counts per minute
[6]; Test A, 1 × 10^-5 μg/ml, control 2338
  proliferation (3HT uptake), counts per minute: 3442 counts per minute
[6]; Test A, 5 × 10^-1 μg/ml, control 2338
  proliferation (3HT uptake), counts per minute: 4667 counts per minute
[6]; Test A, 5 × 10^-2 μg/ml, control 2338
  proliferation (3HT uptake), counts per minute: 2515 counts per minute
[6]; Test A, 7 × 10^-1 μg/ml, control 2338
  proliferation (3HT uptake), counts per minute: 2475 counts per minute
[6]; Test B, 1 μg/ml, control 5573
  proliferation (3HT uptake), counts per minute: 3275 counts per minute
[6]; Test B, 1 × 10^-2 μg/ml, control 5573
  proliferation (3HT uptake), counts per minute: 3077 counts per minute
[6]; Test B, 1 × 10^-3 μg/ml, control 5573
  proliferation (3HT uptake), counts per minute: 3800 counts per minute
[6]; Test B, 1 × 10^-4 μg/ml, control 5573
  proliferation (3HT uptake), counts per minute: 2925 counts per minute
[6]; Test B, 1 × 10^-5 μg/ml, control 5573
  proliferation (3HT uptake), counts per minute: 3645 counts per minute
[6]; Test B, 5 × 10^-1 μg/ml, control 5573
  proliferation (3HT uptake), counts per minute: 5405 counts per minute
[6]; Test B, 5 × 10^-2 μg/ml, control 5573
  proliferation (3HT uptake), counts per minute: 4280 counts per minute
[6]; Test B, 7 × 10^-1 μg/ml, control 5573
  proliferation (3HT uptake), counts per minute: 4302 counts per minute
Human mononuclear cells
  effect on proliferation: No significant effect

## Ph2 TeCl
IL-2; spleen cells
  Spleen Cells (cpm): 2,100 cpm

Source: patent publication US4764461A, “Tellurium and selenium compounds for the induction of in vivo and in vitro production of cytokines” (priority 1987, dated 1988)
